Test results from patent publication US20250361233A1, “Compounds For Activating Serotonin Receptor” (PSYLO PTY LTD, priority 2023, published 2025).

What was measured:
C57BL/6J mice = assay: Biotelemetry and head-twitch response (HTR) experiments; type: in vivo, mice (C57BL/6J males); settings: male C57BL/6 mice, SC, several doses (0.03 to 30 mg/kg)
Description: Mice (C57BL/6J males) were purchased from the Jackson Laboratory (Bar Harbor, ME, USA) at 5-6 weeks of age and allowed at least 1-2 weeks to acclimate to the NIDA, Intramural Research Program (IRP), animal research facility in Baltimore, MD, USA. The animal facility is fully accredited by the Association for the Assessment and Accreditation of Laboratory Animal Care, and all procedures were approved by the NIDA IRP Animal Care and Use Committee. Mice were initially group housed 3-5 per cage during acclimation and housed in a 12 h light-dark cycle throughout the study, with lights on at 0700 h. Food and water were available ad libitum except during testing. Cohorts of 20-24 mice were used for each test drug. The mice were subjected to experimental testing once every 1-2 weeks for 2-3 months to complete dose-effect curves and antagonist experiments. A minimum of 7 days between treatments was utilized to avoid any tolerance to effects of repeated drug administration. All drug doses represent the weight of the salt dissolved in 0.9% saline vehicle. Mice were tested first in dose-response studies to assess the effects of each compound at doses from 0.03 to 30 mg/kg s.c. and were subsequently tested in antagonist reversal studies utilizing pretreatment with M100907 and WAY100635. All experiments were conducted from 0900 to 1700 local time during the light phase, as sensitivity of rodents to other tryptamine psychedelics is diurnal, with maximal HTR observed in the middle of the light phase. […]
Subcutaneous Temperature Transponder Implants. […] Temperature was determined noninvasively using a handheld receiver that is sensitive to signals emitted from the implanted transponders.
Prior to each experiment, mouse body weight and temperature were recorded. […] In dose-response studies, after a brief 5 min acclimation, mouse body temperature was recorded for baseline measurement, mice received s.c. injection of test substance or vehicle, and animals were returned to the testing arena for 30 min. During the session, locomotor activity was monitored via photobeam tracking of movements in the horizontal plane to yield distance traveled in centimeter. HTR was monitored by the analysis of GoPro Hero Black 7 video recordings (120 frames per see and 960p resolution) using a commercially available software package from Clever Sys Inc. (Reston, VA, USA).82 Post-treatment body temperature values were also recorded, and temperature data are represented as change from pretreatment baseline.
In antagonist reversal experiments, mice received a s.c. injection of either receptor antagonists or vehicle and were returned to the testing chamber for 30 min. During this period, locomotor activity was monitored to examine the potential effects of antagonist treatment on general behavior or movement. […]

Male ICR mice = assay: Acute restraint stress - tail suspension test (TST); type: in vivo; settings: ICR mice after 5 h acute restraint stress, IP; P-3 3, 10 mg/kg; P-8 3, 10, 30 mg/kg; vs vehicle
Procedure: Male ICR mice (23±3 g) were purchased from BioLASCO (Taipei, Taiwan) at 4-5 weeks of age and allowed 5-7 days to acclimate to the animal research facility at Pharmacology Discovery Services (Taipei, Taiwan). Mice were housed in groups of 10 in a large cage (47×25×15 cm) on a 12-hour light cycle (lights on: 0700) and provided ad libitum food and water except during acute restraint stress and tail-suspension testing. Temperature was maintained at 20-24° C., and all rooms (colony and testing rooms) had similar lighting intensity. All aspects of this work including housing, experimentation, and animal disposal were performed in accordance with the “Guide for the Care and Use of Laboratory Animals: Eighth Edition” (The National Academies Press, Washington, DC, 2011) in a facility accredited by the Association for Assessment and Accreditation of Laboratory Animal Care. […]
Tail Suspension Test (TST) Procedure: Mice were individually suspended on the edge of a shelf, 58 cm above a tabletop, using adhesive tape placed approximately 1 cm from the tip of the tail, for a total duration of 7 minutes. Using a stopwatch, the experimenters blinded to treatment groups recorded the duration of immobility (defined as hanging passively and motionless) during the 5 minutes spanning from 2-7 minutes. The data from 0-2 minutes was not recorded. […]

| SMILES | Head-twitch response (HTR) (C57BL/6J mice) | Tolerability (temperature, locomotor activity, HTR; FIGS. 2-5) (C57BL/6J mice) | Immobility time in tail suspension test (FIG. 6) (Male ICR mice) |
| --- | --- | --- | --- |
| COc1cnc2[nH]cc(CCN(C)C)c2c1 [Compound P-3, 2-(5-methoxy-1H-pyrrolo[2,3-b]pyridin-3-yl)-N,N-dimethylethan-1-amine] | not promoting increased head-twitch response | well-tolerated | decrease the immobility time of mice |
| COc1ccnc2[nH]cc(CCN(C)C)c12 [Compound P-4, 2-(4-methoxy-1H-pyrrolo[2,3-b]pyridin-3-yl)-N,N-dimethylethan-1-amine] | not promoting increased head-twitch response | well-tolerated |  |
